According to patent US9726659B2, “CMPF as a biomarker for diabetes and associated methods” (The Governing Council of the University of Toronto, priority 2012, dated 2017):

Assays:
[1] = system: mouse islets; assay: Microarray analysis of 24 hr treated islets; assay type: cell-based; settings: 24 hr treatment
Protocol: A) Expression of insulin, insulin processing enzymes, insulin transcription factors and glucose-sensing genes in 24-hour treated islets (N=5-6/group). B) MMP following 24-hour incubation with control or 200 μM CMPF, and change in fluorescence (N=4/group). […] Values are mean+/−SEM. Student's t-test (a,c), one-way ANOVA (b). *P<0.05, **P<0.01
(§1) Total RNA was extracted from 24 hour vehicle or CMPF-treated islets using the Qiagen RNeasy Plus mini kit (Hilden, Germany). Microarray analysis was performed as previously described (Basford et al. 2012) using the Affymetrix Mouse 430 2.0 Gene Chip at the University Health Network microarray center (Toronto, Canada). Significant changes were defined as P<0.05. Microarray data will be available on the NCBI GEO database at the time of publication. Human islet microarray data can be found at GE040709. Reverse transcription from total RNA and quantitative real time PCR (qPCR) analysis was performed as previously described (Basford et al. 2012). Primers were designed using Primer3 software (NCBI). Data were normalized to beta actin mRNA.
Given that CMPF causes hyperinsulinemia during the fed-state in vivo, and exaggerated secretion of insulin from islets under non-stimulatory conditions in vitro, we rationalized that there must be a defect in glucose-sensing and/or secretion of insulin that could not be solely explained by effects on insulin production. […] To confirm changes in mitochondrial function, 24 hr CMPF treated islets were analyzed by microarray. […] When organized based on biological process, the largest differentially expressed cluster encompassed genes involved in metabolism (38%) (FIG. 17c). […] Such a switch can decrease the beta-cell's ability to sense and metabolize glucose, limiting their capacity for GSIS thus may explain CMPF's effect on beta-cells (Hue et al., 2009).

[2] = system: MIN6; assay: Total insulin content in MIN6 cells; assay type: cell-based, murine; settings: 200 uM, 4 hrs, vs vehicle
Protocol: In the absence of apoptosis and necrosis, CMPF must be impairing GSIS by causing beta cell dysfunction. First, the effect of CMPF treatment on insulin biosynthesis was investigated to determine if insulin is available to be released upon stimulation. MIN6, murine and human islets were treated with vehicle control, 20 uM and 200 uM CMPF for 4 hrs (MIN6) or 24 hrs (islets), and total insulin content measured. […] Lower total insulin content may be due to either defective insulin processing from proinsulin to mature insulin, or insufficient insulin transcription. To determine the mechanism through which CMPF is reducing total insulin content, quantitative PCR (qPCR) was performed on RNA that was isolated from murine islets treated with either vehicle control or 200 uM CMPF for 24 hrs.

[3] = system: mice; assay: Hyperinsulinemic euglycemic clamps after 7 days of IP injections; assay type: in vivo; settings: 7 days IP
Protocol: A) Schematic illustrating injection and surgical timeline. B) Glucose infusion rate (C) glucose appearance and (D) disappearance rates and (E) glycolytic rate in 7 day CMPF-injected mice compared to vehicle controls (N=4/group). […] Values mean±SEM.
Hyperinsulinemic euglycemic clamps were performed as previously described (Liu et al., 2012) following 7 days of IP injections with either CMPF or vehicle. Internal and external cannulation was performed on day 3 of the injection protocol.
As shown in Example 1, elevated plasma CMPF results in glucose intolerance and impaired insulin secretion. […] To more thoroughly examine integrated glucose homeostasis, hyperinsulinemic euglycemic clamps were performed.

[4] = system: dispersed CD1 mouse islet cells; assay: Immunofluorescent staining of FOXO1 and PDX1 localization; assay type: cell-based; settings: CMPF-treated islets
Protocol: The cellular localization of FOXO1 and PDX1 were determined in dispersed CD1 mouse islet cells using immunofluorescence. The presence of the organic anion transporters (OATs) were determined in dispersed human islet cells also using immunofluorescence. Staining was performed as previously described (Diao et al., 2008). Images were acquired using a confocal microscope (Quorum Wave FX Spinning Disc; Perkin Elmer, Waltham M L, USA) and Volocity software (Perkin Elmer).
To determine the mechanism through which CMPF decreases insulin biosynthesis we examined its effect on these key regulators. Under normal conditions, AKT and GSK3β have reciprocal activities. Active pAKT phosphorylates and inactivates GSK3β, preventing phosphorylation of downstream targets (Humphrey et al., 2010). […] FOXO1 is normally sequestered in the cytosol due to phosphorylation by AKT (Kitamura et al., 2005). […] Altered activity of these transcription factors is further confirmed by decreased mRNA levels of key target genes including Inst, transcription factors Pdx1 and Mafa, proinsulin processing enzymes CpE, Pc1 and Pc2, and the glucose transporter Glut2 (Boucher et al., 2006; Kaneto et al. 2008) (FIG. 18a).

[5] = system: murine islets; assay: qPCR mRNA expression in treated murine islets; assay type: cell-based; settings: 24 hrs
Protocol: as §1, with “First, the effect of CMPF treatment on insulin biosynthesis was investigated to determine if insulin is available to be released upon stimulation. MIN6, murine and human islets were treated with vehicle control, 20 uM and 200 uM CMPF for 4 hrs (MIN6) or 24 hrs (islets), and total insulin content measured. […] To determine the mechanism through which CMPF is reducing total insulin content, quantitative PCR (qPCR) was performed on RNA that was isolated from murine islets treated with either vehicle control or 200 uM CMPF for 24 hrs. […] Total” for “Total”

Q: `CCCc1oc(CCC(=O)O)c(C(=O)O)c1C` [CMPF, 3-carboxy-4-methyl-5-propyl-2-furanpropanoic acid] was tested. Which “genes related to fat oxidation” value [1] did it give?
A: significant upregulation

Q: What about the “share of differentially expressed genes in the metabolism cluster” value [1] of the same compound?
A: 38%

Q: And the “transcripts significantly differentially expressed” value [1]?
A: 6.2%

Q: What about the total insulin content [2] of the same compound?
A: significantly reduced

Q: And the “glucose appearance, basal” value [3]?
A: significantly lower

Q: What about the “glycolytic rate, response to insulin (post clamp/basal)” value [3] of the same compound?
A: no difference

Q: What about the insulin appearance post-clamp [3] of the same compound?
A: significantly reduced

Q: And the glucose infusion rate ([3]; N=4/group)?
A: significant reduction

Q: What about the FOXO1 localization [4] of the same compound?
A: translocated to the nucleus

Q: What about the PDX1 localization [4] of the same compound?
A: sequestered outside of the nucleus

Q: And the “CpE mRNA” value ([5]; 200 uM)?
A: significantly lower levels

Q: What about the GCK expression ([5]; 200 uM) of the same compound?
A: trend toward lower expression

Q: What about the GLUT2 expression ([5]; 200 uM) of the same compound?
A: significantly reduced

Q: And the “HNF4a mRNA” value ([5]; 200 uM)?
A: significant reduction

Q: And the “MAFA mRNA” value ([5]; 200 uM)?
A: significant reduction

Q: And the “PCSK1 mRNA” value ([5]; 200 uM)?
A: trending lower levels

Q: What about the “PCSK2 mRNA” value ([5]; 200 uM) of the same compound?
A: trending lower levels

Q: What about the “PDX1 mRNA” value ([5]; 200 uM) of the same compound?
A: significant reduction

Q: And the “insulin mRNA” value ([5]; 200 uM)?
A: significant reduction

Q: And the Ucp2 expression [5]?
A: Increased antioxidant gene expression

Q: What about the “catalase (Cat) expression” value [5] of the same compound?
A: Increased antioxidant gene expression
